Tests used:
Type in all cases: in vivo
[1] = system: domestic fly (Musca domestica); test: Domestic fly test (larvae in treated nutrient medium); conditions: 0.1% related to milk, 0.05% related to total nutrient medium
Procedure: The fly larvae are grown on a nutrient medium of the following composition: 2 ml of milk; 2 ml of water; 2 g of wheat bran; 0.1 ml of saturated alcoholic nipagin solution.
The nutrient medium is filled into cylindrical glass vials (30×100 mm) and 25 fly larvae are raised in each vial. The test compound is dissolved in milk; the end concentration (related to milk) amounts to 0.1% which corresponds to 0.05% (related to the total nutrient medium). The solution of the active ingredient is admixed with the nutrient medium whereupon […] of domestic fly larvae of the I. stage are placed into each vial and the vials are closed with a hard cotton-wool stopper. The nymphs emerging from the larvae are collected in each vial, counted and kept in a Petri dish (diameter 25 mm) until flies hatch from the nymphs. The hatched flies are counted.

[2] = system: Caenorhabditis elegans; test: Caenorhabditis elegans test (treated NGM agar plate, young adults); conditions: for mortality at 200 µg/mL / mortality at 400 µg/mL: Caenorhabditis elegans, 24 h, read-out: Lethality
Procedure: (5) Caenorhabditis elegans 0.5 ml of the acetonous solution of the test compound is applied onto a NGM agar plate free from bacteria in a Petri dish. After the acetone has dried 25-30 young adults are placed on the plate. After 24 hours the surviving and killed insects are counted.

[3] = system: cabbage butterfly (Pieris brassicae); test: Cabbage butterfly test (sprayed cabbage seedlings); conditions: 50 EC, 0.1%; for pest or weed control at 0.1 %: Pieris brassicae, read-out: Killing rate of larvae
Procedure: From the 50 EC of the test compound a diluted series is prepared with water and the host seedlings (cabbage) are sprayed with this composition until the spray runs down. The spray is allowed to dry whereupon 20 young larvae of the II. stage are placed on each treated plant and the seedlings are kept under so-called "long-day" illumination (18 hours of illumination and 6 hours of darkness). The nibbled plants are replaced by similarly sprayed plants if necessary. The killing rate of the insects, the growth rate of the larvae and the morphological deformations of the surviving nymphs and adults are registered.
In the 50 EC compositions the concentration of compounds 23 and 25 amounts to 0.01% and that of the other compounds to 0.1%.

| SMILES | Survival adult [1] [%] | Survival nymph [1] [%] | Remarks ([2]; 200 μg/ml) | Size of descendant population ([2]; 200 μg/ml) | Remarks ([2]; 400 μg/ml) | Size of descendant population ([2]; 400 μg/ml) | mortality at 200 µg/mL [2] [%] | mortality at 400 µg/mL [2] [%] | Survival adult [3] [%] | Survival nymph [3] [%] | pest or weed control at 0.1 % [3] [%] |
| --- | --- | --- | --- | --- | --- | --- | --- | --- | --- | --- | --- |
| COc1ccc2c(c1OC)OC(C)(C)C=C2 [Compound 35] | 0 | 12 | paralysation | reduced | paralysation | no descendants | 67 | 100 | – | – | – |
| C#CCOc1ccc2c(c1)OC(C)(C)C=C2 [Compound 37] | – | – | paralysation | no descendants | paralysation | no descendants | 100 | 100 | – | – | – |
| CCOc1cc(C)c2c(c1)OC(C)(C)C=C2 [Compound 38] | 14.8 | 40 | – | – | – | – | – | – | 19 | 19 | 81 |
| Cc1cc(OC(C)C)cc2c1C=CC(C)(C)O2 [Compound 40] | 27.6 | 50.9 | – | – | – | – | – | – | – | – | – |
| CCC(C)Oc1cc(C)c2c(c1)OC(C)(C)C=C2 (stereo not shown) [Compound 41] | 12.5 | 25.4 | – | – | – | – | – | – | 14 | 19 | 11 |
| Cc1cc(OC2CCCC2)cc2c1C=CC(C)(C)O2 [Compound 43] | 31.8 | 52.7 | – | – | – | – | – | – | – | – | 100 |
| C#CCOc1cc(C)c2c(c1)OC(C)(C)C=C2 [Compound 44] | 10.6 | 50.9 | paralysation | some descendants | paralysation | no descendants | – | – | 17 | 17 | 83 |
| CCCOc1cc(OC)c2c(c1)OC(C)(C)C=C2 [Compound 46] | 6.4 | 9.1 | – | – | – | – | – | – | 12 | 12 | 88 |
| COc1cc(OC(C)C)cc2c1C=CC(C)(C)O2 [Compound 47] | – | – | – | – | – | – | – | – | 9 | 13 | 87 |
| CCC(C)Oc1cc(OC)c2c(c1)OC(C)(C)C=C2 (stereo not shown) [Compound 48, 5-methoxy-7-sec. butoxy-2,2-dimethyl-2H-chromene] | – | – | – | – | – | – | – | – | – | – | 100 |
| COc1cc(OCC(C)C)cc2c1C=CC(C)(C)O2 [Compound 49] | 0 | 0 | – | – | – | – | – | – | – | – | 100 |
| CCOc1ccc2c(c1OC)OC(C)(C)C=C2 [Compound 50] | 4.2 | 5.4 | – | reduced | – | no descendants | – | – | 24 | 24 | 76 |
| COc1c(OC(C)C)ccc2c1OC(C)(C)C=C2 [Compound 52] | 0 | 12 | – | reduced | – | reduced | – | – | 32 | 36 | 64 |
| CCC(C)Oc1ccc2c(c1OC)OC(C)(C)C=C2 (stereo not shown) [Compound 53, 7sec. butoxy-8-methoxy-2,2-dimethyl-2chromene] | – | – | – | reduced | – | reduced | – | – | – | – | 100 |
| COc1c(OCC(C)C)ccc2c1OC(C)(C)C=C2 [Compound 54] | – | – | – | – | – | – | – | – | 7 | 7 | 93 |
